Data published in patent publication US20240165209A1, “PLACENTAL ALKALINE PHOSPHATASE FOR REDUCING THE LOSS OF RED BLOOD CELLS, WHITE BLOOD CELLS, AND PLATELETS IN CHEMOTHERAPY TREATED CANCER PATIENTS” (ZOLTAN LABORATORIES, LLC, priority 2021, published 2024).

Tests used:
[1] = system: mouse bone marrow-derived hematopoietic stem cells (HSCs); settings: 200 μM Cyp, 3 days, absence of PLAP
Description: Bone marrow was harvested by flushing bones from female C57/BL/6 mice in Fischer medium (Thermo Fisher Scientific; catalogue no. 21475025) containing 20% horse serum (Hyclone, Logan, UT), 100 Unit/ml penicillin, […] streptomycin (Gibco, BRL), 0.015 fungizone (Gibco, BRL), and 0.1 μM hydrocortisone sodium succinate (SynoPharm; Hamburg, Germany). Pooled stem cells were seeded into 25 cm 3 flasks (10 ml cell suspension) and after 3 days of incubation at 33° C. in 5% CO2 in air in the absence of PLAP, they were plated into 12-well plates and were incubated in the absence (n=8) or presence of 50 μg/ml PLAP (n=8) for additional 3 days.
In a follow up experiment with hematopoietic stem cells, the same incubation medium in 12-well plates contained either no other addition (n=8) or contained 200 μM Cyp without (n=8) or with 50 μg/ml PLAP (n=8) for 3 days.

[2] = system: blood cells (RBCs, WBCs, platelets) of T47D tumor bearing mice; test: Experiment 2: blood cell counts in Cyp-treated T47D tumor bearing mice, last sample day 10; type: in vivo, mouse; settings: Cyp 120 mg/kg, PLAP 7.5 mg/kg days 0, 2, 4, 6
Description: In the two experiments performed, first-generation hybrid BDF1 (C57BL/6 female×DBA/2 male) 10 weeks old adult female mice bearing T47D tumors (2.6-3.3 cm 3 volume) were used.
The second experiment was performed with T47D tumor bearing mice similarly to the one described to TABLE 2, except that one group of Cyp (120 mg/kg) treated mice were co-treated treated with PLAP (7.5 mg/kg) on days 0, 2, 4, and 6. […] The data shown is the average of 6 independent determinations±S.D.

[3] = system: nucleated bone marrow cells (BM); test: Nucleated bone marrow (BM) cells per femur in Cyp treated T47D tumor bearing mice; type: in vivo, mouse; settings: Cyp 120 mg/kg i.p. daily x6, PLAP 7.5 mg/kg s.c. days 0, 2, 4, 6
Description: (§1) Again, first-generation hybrid BDF1 (C57BL/6 female×DBA/2 male) 10 weeks old adult female mice bearing T47D tumors (2.6-3.3 cm^3) were used. In the first group, mice received no treatment. In the second and third groups, mice were administered 120 mg/kg of Cyp intraperitoneally once a day for 6 consecutive days. In a third group, mice were also administered 7.5 mg/kg of PALP subcutaneously on days 0, 2, 4 and 6. On the days indicated in TABLE 4, the animals were killed, then the bone marrow was flushed from the femurs with Iscove's modified Dulbecco's medium (Gibco BRL, Gaithersburg, MD, USA). This was followed by standard erythrocyte lysis and then by counting the number of nucleated bone marrow (BM) cells per femur using a hemocytometer.

[4] = system: granulocyte-macrophage colony-forming units (CFU-GM); test: Granulocyte-macrophage colony-forming units (CFU-GM), semisolid colony-forming cell assay, Cyp treated T47D tumor bearing mice; type: in vivo, mouse; settings: for CFU-GM/10^5 nucleated BM cells: Cyp 120 mg/kg i.p. daily x6, PLAP 7.5 mg/kg s.c. days 0, 2, 4, 6; for CFU-GM per femur: calculated: nucleated cells in the femur x CFU-GM
Description: as §1
To measure the formation of the granulocyte-macrophage colony-forming units (CFU-GM), a semisolid colony-forming cell assay was used. Equal numbers of nucleated bone marrow cells (isolated on days as indicated above) were plated in 35-mm Petri dishes (Costar, Cambridge, MA, USA) in Iscove's modified Dulbecco's medium supplemented with 1% methylcellulose, 30% horse serum (Gibco), 10% WEHI-3B conditioned medium as a source of growth factors, 4 mM L-glutamine, 0.25 mM α-thioglycerol (Gibco), 1% deionized bovine serum albumin (Sigma), and antibiotics (Gibco). Cells were cultured at 37° C. in 5% CO2/95% air atmosphere. CFU-GM was counted on day 9. Three parallel plates were used for each 3 animals (9 plates for one number). Colonies containing at least 50 cells were counted which is a generally accepted value in the literature. In TABLE 4, “CFU-GM per femur” is a calculated value derived from multiplying the number of nucleated cells in the femur with the number of CFU-GM; this number gives the number of CFU-GM in one femur. Each value is expressed as the mean±standard deviation of 9 plates (derived from 3 animals).

Q: What does the source list for O.O=P1(N(CCCl)CCCl)NCCCO1 (stereo not shown) [Cyp, 2-[Bis (2-chloroethyl)amino] tetrahydro-2H-1,3,2-oxazaphosphorine 2-oxide monohydrate]?
A: decrease of the number of cells by Cyp [1]: 52%; Platelets ([2]; day 0): 1,185 ± 101^ ×10^−3/μl; RBCs ([2]; day 0): 9.51 ± 0.70 ×10^−6/μl; WBCs ([2]; day 0): 8.86 ± 0.61 ×10^−3/μl; Platelets ([2]; day 6): 372 ± 57 ×10^−3/μl; RBCs ([2]; day 6): 4.83 ± 0.62 ×10^−6/μl; WBCs ([2]; day 6): 2.79 ± 0.47 ×10^−3/μl; Platelets ([2]; day 10): 746 ± 92 ×10^−3/μl; RBCs ([2]; day 10): 6.88 ± 0.61 ×10^−6/μl; WBCs ([2]; day 10): 6.15 ± 0.45 ×10^−3/μl; Nucleated BM cells/femur ([3]; day 0): 14.11 ± 1.50 ×10^6; Nucleated BM cells/femur ([3]; day 3): 9.32 ± 2.32 ×10^6; Nucleated BM cells/femur ([3]; day 6): 3.10 ± 2.26 ×10^6; Nucleated BM cells/femur ([3]; day 9): 4.90 ± 2.17 ×10^6; CFU-GM/10^5 nucleated BM cells ([4]; BM isolated day 0): 78.1 ± 6.1; CFU-GM/10^5 nucleated BM cells ([4]; BM isolated day 3): 34.5 ± 7.2; CFU-GM/10^5 nucleated BM cells ([4]; BM isolated day 6): 25.8 ± 4.4; CFU-GM/10^5 nucleated BM cells ([4]; BM isolated day 9): 98.5 ± 8.0; CFU-GM per femur ([4]; day 0): 1,101; CFU-GM per femur ([4]; day 3): 321; CFU-GM per femur ([4]; day 6): 80; CFU-GM per femur ([4]; day 9): 482
